Experiment: HILIC, Waters ACQUITY UPLC BEH Amide, 100 × 2.1 mm, 1.7 µm; A: water + 0.125% formic acid + 10 mM ammonium formate; B: 5% water + 95% acetonitrile + 0.125% formic acid + 10 mM ammonium formate; gradient (min/%B) 0/100 2/100 7.7/70 9.5/40 10.25/30 12.75/100 17/100
Details: stereoisomer not certain

| LC retention time [min] | SMILES |
| --- | --- |
| 1.37 | CC(=O)Nc1ccc(O)cc1 [Acetaminophen] |
| 1.11 | CC(=O)Nc1ccccc1 [Acetanilide] |
| 2.94 | CC(=O)NO [Acetohydroxamic acid] |
| 7.19 | CC(=O)OC(CC(=O)[O-])C[N+](C)(C)C (stereo not given) [Acetylcarnitine] |
| 2.4 | CC(=O)N1C(=O)C(=O)c2ccccc21 [Acetylisatin] |
| 1.03 | Cc1c2oc3c(C)ccc(C(=O)NC4C(=O)NC(C(C)C)C(=O)N5CCCC5C(=O)N(C)CC(=O)N(C)C(C(C)C)C(=O)OC4C)c3nc-2c(C(=O)NC2C(=O)NC(C(C)C)C(=O)N3CCCC3C(=O)N(C)CC(=O)N(C)C(C(C)C)C(=O)OC2C)c(N)c1=O (stereo not given) [Actinomycin D] |
| 1.58 | CC(=O)Nc1ccc(CC(=O)O)cc1 [Actrarit] |
| 4.71 | Nc1ncnc2nc[nH]c12 [Adenine] |
| 7.62 | Nc1ncnc2c1ncn2C1OC2COP(=O)(O)OC2C1O (stereo not given) [Adenosine 3',5'-cyclic monophosphate] |
| 8.88 | Nc1ncnc2c1ncn2C1OC(COP(=O)(O)O)C(O)C1O (stereo not given) [Adenosine 5'-monophosphate] |
| 8.88 | Nc1ncnc2c1ncn2C1OC(CO)C(OP(=O)(O)O)C1O (stereo not given) [Adenosine-3-monophosphate] |
| 4.77 | Nc1ncnc2c1ncn2C1OC(CO)C(O)C1O (stereo not given) [Adenosine] |
| 8.92 | NCCCCN=C(N)N [Agmatine] |
| 8.41 | CC(N)C(=O)NC(C)C(=O)O (stereo not given) [Ala-Ala] |
| 9.11 | CC(N)C(=O)NC(CCC(N)=O)C(=O)O (stereo not given) [Ala-Gln] |
| 7.83 | CCC(C)C(NC(=O)C(C)N)C(=O)O (stereo not given) [Ala-Ile] |
| 7.6 | CC(C)CC(NC(=O)C(C)N)C(=O)O (stereo not given) [Ala-Leu] |
| 7.66 | CC(N)C(=O)NC(C(=O)O)C(C)C (stereo not given) [Ala-Val] |
| 8.05 | CC(N)C(=O)O (stereo not given) [Alanine] |
| 1.22 | CCCSc1ccc2nc(NC(=O)OC)[nH]c2c1 [Albendazole] |
| 5.55 | CC(C)(C)NCC(O)c1ccc(O)c(CO)c1 (stereo not given) [Albuterol] |
| 4.29 | COc1cc2nc(N(C)CCCNC(=O)C3CCCO3)nc(N)c2cc1OC (stereo not given) [Alfuzosin] |
| 8.56 | NC(=O)NC(NC(N)=O)C(=O)O [Allantoic acid] |
| 4.19 | Cc1[nH]cnc1CN1CCc2c(c3ccccc3n2C)C1=O [Alosetron] |
| 2.64 | O=C(c1ccc(F)cc1)C1CCN(CCn2c(=S)[nH]c3ccccc3c2=O)CC1 [Altanserin] |
| 4.88 | NC12CC3CC(CC(C3)C1)C2 [Amantadine] |

| LC retention time [min] | SMILES |
| --- | --- |
| 5.52 | NC(N)=NC(=O)c1nc(Cl)c(N)nc1N [Amiloride] |
| 1.87 | CCCCc1oc2ccccc2c1C(=O)c1cc(I)c(OCCN(CC)CC)c(I)c1 [Amiodarone] |
| 2.76 | CCN1CCCC1CNC(=O)c1cc(S(=O)(=O)CC)c(N)cc1OC (stereo not given) [Amisulpride] |
| 1.81 | CC(C)c1ccc2oc3nc(N)c(C(=O)O)cc3c(=O)c2c1 [Amlexanox] |
| 4.24 | CCOC(=O)C1=C(COCCN)NC(C)=C(C(=O)OC)C1c1ccccc1Cl (stereo not given) [Amlodipine] |
| 0.95 | CCOC(=O)OC(C)OC1=C(C(=O)Nc2ccccn2)N(C)S(=O)(=O)c2ccccc21 (stereo not given) [Ampiroxicam] |
| 1.82 | O=C1CN2Cc3c(ccc(Cl)c3Cl)N=C2N1 [Anagrelide] |
| 0.98 | CC(C)(C#N)c1cc(Cn2cncn2)cc(C(C)(C)C#N)c1 [Anastrozole] |
| 9.49 | Cn1cncc1CC(NC(=O)CCN)C(=O)O (stereo not given) [Anserine] |
| 9.66 | CC(NC(=O)C(N)CCCN=C(N)N)C(=O)O (stereo not given) [Arg-Ala] |
| 9.85 | NC(N)=NCCCC(N)C(=O)NCC(=O)O (stereo not given) [Arg-Gly] |
| 9.51 | NC(N)=NCCCC(N)C(=O)N1CCCC1C(=O)O (stereo not given) [Arg-Pro] |
| 9.9 | NC(N)=NCCCC(N)C(=O)NC(CO)C(=O)O (stereo not given) [Arg-Ser] |
| 9.3 | CC(C)C(NC(=O)C(N)CCCN=C(N)N)C(=O)O (stereo not given) [Arg-Val] |
| 5.45 | CC1CNc2c(cccc2S(=O)(=O)NC(CCCN=C(N)N)C(=O)N2CCC(C)CC2C(=O)O)C1 (stereo not given) [Argatroban] |
| 9.53 | NC(N)=NCCCC(N)C(=O)O (stereo not given) [Arginine] |
| 3.14 | O=C1CCc2ccc(OCCCCN3CCN(c4cccc(Cl)c4Cl)CC3)cc2N1 [Aripiprazole] |
| 1.44 | O=C1OC(C(O)CO)C(O)=C1O (stereo not given) [Ascorbic acid] |
| 9.47 | NC(CC(=O)O)C(=O)NC(CCC(=O)O)C(=O)O (stereo not given) [Asp-Glu] |
| 8.14 | NC(CC(=O)O)C(=O)NC(Cc1ccccc1)C(=O)O (stereo not given) [Asp-Phe] |
| 8.81 | NC(=O)CC(N)C(=O)O (stereo not given) [Asparagine] |
| 9.33 | NC(CC(=O)O)C(=O)O (stereo not given) [Aspartic acid] |
| 2.42 | CNCCC(Oc1ccccc1C)c1ccccc1 (stereo not given) [Atomoxetine] |
| 2.95 | CN1CCCC(n2nc(Cc3ccc(Cl)cc3)c3ccccc3c2=O)CC1 (stereo not given) [Azelastine] |
| 4.85 | O=C(O)CCNC(=O)c1ccc(N=Nc2ccc(O)c(C(=O)O)c2)cc1 [Balsalazide] |
| 1.26 | CC1CC2C3CCC4=CC(=O)C=CC4(C)C3(Cl)C(O)CC2(C)C1(O)C(=O)CO (stereo not given) [Beclomethasone] |

| LC retention time [min] | SMILES |
| --- | --- |
| 1.33 | CCOC(=O)C(CCc1ccccc1)NC1CCc2ccccc2N(CC(=O)O)C1=O (stereo not given) [Benazepril] |
| 1.46 | COC(=O)C1=C(C)NC(C)=C(C(=O)OC2CCCN(Cc3ccccc3)C2)C1c1cccc([N+](=O)[O-])c1 (stereo not given) [Benidipine] |
| 1.99 | CC(COc1ccccc1Cc1ccccc1)N1CCCCC1 (stereo not given) [Benproperine] |
| 1.27 | NC(=O)c1ccccc1 [Benzamide] |
| 1.11 | c1ccc2scnc2c1 [Benzothiazole] |
| 8.71 | CC(=O)OCc1ccccc1 [Benzylacetate] |
| 5.98 | CC(C)CC(NC(=O)C(O)C(N)Cc1ccccc1)C(=O)O (stereo not given) [Bestatin] |
| 7.24 | C[N+](C)(C)CC(=O)[O-] [Betaine] |
| 3.05 | CC(C)NCC(O)COc1ccc(CCOCC2CC2)cc1 (stereo not given) [Betaxolol] |
| 2.46 | CNCCCCOc1ccccc1Cc1ccccc1 [Bifemelane] |
| 1.19 | c1ccc(-c2ccc(C(c3ccccc3)n3ccnc3)cc2)cc1 (stereo not given) [Bifonazole] |
| 1.8 | O=C1CC2(CCCC2)CC(=O)N1CCNCC1COc2ccccc2O1 (stereo not given) [Binospirone] |
| 2.85 | O=C(O)CCCCC1SCC2NC(=O)NC21 (stereo not given) [Biotin] |
| 3.47 | CC(C)NCC(O)COc1ccc(COCCOC(C)C)cc1 (stereo not given) [Bisoprolol] |
| 2.73 | NC(=O)NC(N)=O [Biuret] |
| 2.34 | COc1cc(OC)c(C(=O)CCCN2CCCC2)c(OC)c1 [Buflomedil] |
| 10.2 | CCCC(=O)O [Butanoic acid] |
| 3.73 | CCCC(=O)NCC(=O)O [Butyrylglycine] |
| 8.99 | NCCCCCN [Cadaverine] |
| 1.21 | Cn1c(=O)c2c(ncn2C)n(C)c1=O [Caffeine] |
| 1.05 | c1ccc2c(-c3nccs3)c[nH]c2c1 [Camalexin] |
| 1 | COc1cc(CNC(=O)CCCCC=CC(C)C)ccc1O [Capsaicin] |
| 1.21 | NC(=O)N1c2ccccc2C=Cc2ccccc21 [Carbamazepine] |
| 9.04 | NC(CSCC(=O)O)C(=O)O (stereo not given) [Carbocysteine] |
| 1.11 | CC(Cc1ccc(C(C)C(=O)O)cc1)C(=O)O (stereo not given) [Carboxyibuprofen] |
| 7.83 | C[N+](C)(C)CC(O)CC(=O)[O-] (stereo not given) [Carnitine] |

| SMILES | LC retention time [min] |
| --- | --- |
| CC12CC(=O)C3C(CCC4=CC(=O)CCC43C)C1CCC2=O (stereo not given) [Adrenosterone] | 1.1 |
| Cc1nnc2n1-c1ccc(Cl)cc1C(c1ccccc1)=NC2 [Alprazolam] | 1.34 |
| CC(N)Cc1ccccc1 (stereo not given) [Amphetamine] | 4.6 |
| CC12CCC3C(CCC4CC(O)CCC43C)C1CCC2O (stereo not given) [Androstane-3,17-diol] | 0.96 |
| CC12CCC3C(CCC4=CC(=O)CCC43C)C1CCC2=O (stereo not given) [Androstenedione] | 1.09 |
| CC12CCC3C(CCC4CC(O)CCC43C)C1CCC2=O (stereo not given) [Androsterone] | 4.62 |
| CCCCCC=CCC=CCC=CCC=CCCCC(=O)NCCc1ccc(O)c(O)c1 [Arachidonyl dopamine] | 1.14 |
| CN1C2CCC1CC(OC(=O)C(CO)c1ccccc1)C2 (stereo not given) [Atropine] | 4.32 |
| CN1C(=O)COc2c(C(=O)NC3CN4CCC3CC4)cc(Cl)cc21 (stereo not given) [Azasetron] | 4.66 |
| CCN(CC)CCOC(=O)C(O)(c1ccccc1)c1ccccc1 [Benactyzine] | 2.16 |
| CN1C2CCC1C(C(=O)O)C(OC(=O)c1ccccc1)C2 (stereo not given) [Benzoylecgonine] | 3.63 |
| CC(Cc1ccccc1)N(C)Cc1ccccc1 (stereo not given) [Benzphetamine] | 2.03 |
| CC(O)(CS(=O)(=O)c1ccc(F)cc1)C(=O)Nc1ccc(C#N)c(C(F)(F)F)c1 (stereo not given) [Bicalutamide] | 0.99 |
| O=C1CN=C(c2ccccn2)c2cc(Br)ccc2N1 [Bromazepam] | 1.3 |
| COc1cc2c(cc1OC)C13CCN4CC5=CCOC6CC(=O)N2C1C6C5CC43 (stereo not given) [Brucine] | 4.57 |
| CC(NC(C)(C)C)C(=O)c1cccc(Cl)c1 (stereo not given) [Bupropion] | 2.22 |
| NC(N)=NOCCC(N)C(=O)O (stereo not given) [Canavanine] | 9.42 |

Reference: the RepoRT retention time repository
